Assay [1] deals with U373. The experiment in a line: MTT colorimetric assay, overall cell growth. The class given is cell-based. The following applies: Homo sapiens, U373 MG; U373 cells, 72 hours of incubation; read-out: IC50 (µM) In Vitro Growth Inhibitory Concentrations (MTT Colorimetric Assay) U373.
Method: (§2) The compounds and particularly dihydrobenzopyran, thiochroman, tetrahydroquinoleine and tetrahydronaphthalene derivatives of the invention were evaluated for their anti-proliferative effect (by means of the colorimetric MTT assay), in the following human glioblastoma cell-lines U373, T98G and Hs683 and in the mouse glioma cell line GL261. Normal brain cells (primocultures from newborn mice) were also used in order to determine the bioselectivity (B^N/C) of the compounds of interest, i.e. the ratio between the concentrations that inhibits 50% of the growth of brain cancer (C) cells (glioma cells) and the concentration that inhibits 50% of the growth of normal (N) brain cells (primocultures of astrocytes). The ideal situation to be reached is a bioselectivity of B^N/C > 10.
(§3) MTT tests were performed in order to rapidly, i.e. within 5 days, measure the effect of compounds of this invention on the overall cell growth. The test measured the number of metabolically active living cells that were able to transform the yellow product 3-(4,5-dimethylthiazol-2-yl)-2,5-diphenyl tetrazolium bromide (herein referred as MTT) into the blue product formazan dye by mitochondrial reduction. The amount of formazan obtained at the end of the experiment, measured by means of a spectrophotometer, is directly proportional to the number of living cells. Optical density determination thus enabled a quantitative measurement of the effect of the investigated compounds as compared to the control condition (untreated cells) and/or to other reference compounds.
(§4) Three human cancer cell lines were used in the following MTT tests.
(§5) To perform the assay, cells were allowed to grow in 96-well micro-wells with a flat bottom with an amount of 100 µl of cell suspension per well with 1,000 to 8,000 cells/well depending on the cell type used. Each cell line was seeded in its appropriate culture medium.
(§6) The detailed experimental procedure was the following: after a 24-hour period of incubation at 37°C, the culture medium was replaced by 100 µl of fresh medium in which the tested compound was previously dissolved, at the following molar concentrations: 10^-8 M, 5.10^-8 M, 10^-7 M, 5.10^-7 M, 10^-6 M, 5.10^-6 M, 10^-5 M, 5.10^-5 M and 10^-4 M. Each experiment was performed in sextuplicate (6 times).
(§7) After 72 hours of incubation at 37°C with (experimental conditions) or without (control condition) the compound to be tested, the medium was replaced by 100 µl MTT dissolved in RPMI (1640 without phenol red) at a concentration of 0.5 mg/ml. The micro-wells were subsequently incubated during 3 hours and a half at 37°C and centrifuged at 1300 rpm during 10 minutes. MTT was removed and formazan crystals formed were dissolved in 100 µl DMSO. The micro-wells were shaken for 5 minutes and read on a spectrophotometer at wavelengths of 570 nm (maximal formazan absorbance).
(§8) For each experimental condition, the mean optical density was calculated, allowing the determination of the percentage of remaining living cells in comparison to the control.
Assay [2] deals with Astrocytes - Mouse normal brain cells. Put plainly: MTT colorimetric assay on normal astrocytes (bioselectivity). It is filed as cell-based. The procedure:
(§1) Table 2: Bioselectivity determined by dividing the IC50 obtained with glioma cell lines by the IC50 obtained with normal astrocytes. Bioselectivity was determined only for those compounds whose mean + SEM values on the three human glioma cell lines were ≤ 20 µM.
(Tetrazolium dyes change colour on reduction, which living cells bring about.)

For assay [3] the test system is unchanged. The description is as above. It is filed as cell-based. Particulars: Astrocyte, primocultures of astrocytes from newborn mice, 72h, read-out: Mean IC50 MTT values ± SEM (µM) Astrocytes - Mouse normal brain cells (II - 72h).
The subject of assay [4] is three Human Glioma Cell Lines. The experiment in a line: MTT colorimetric assay, mean over the three glioma cell lines. It is filed as cell-based. Particulars: mean of the three human glioma cell lines, 72h (Table 2); read-out: Mean IC50 MTT values ± SEM (µM) Glioma - Human Brain cancer cells (I - 72h). The method, then:
as §1

Assay [5] concerns T98G. Put plainly: MTT colorimetric assay, overall cell growth. Particulars: Homo sapiens, 72 h, read-out: IC50 (µM) In Vitro Growth Inhibitory Concentrations (MTT Colorimetric Assay) T98G.
Method: The compounds and particularly dihydrobenzopyran, thiochroman, tetrahydroquinoleine and tetrahydronaphthalene derivatives of the invention were evaluated for their anti-proliferative effect (by means of the colorimetric MTT assay), in the following human glioblastoma cell-lines U373, T98G and Hs683 and in the mouse glioma cell line GL261. Normal brain cells (primocultures from newborn mice) were also used in order to determine the bioselectivity (B^N/C) of the compounds of interest, i.e. the ratio between the concentrations that inhibits 50% of the growth of brain cancer (C) cells (glioma cells) and the concentration that inhibits 50% of the growth of normal (N) brain cells (primocultures of astrocytes).
as §3, §4, §5, §6
The micro-wells were subsequently incubated during 3 hours and a half at 37°C and centrifuged at 1300 rpm during 10 minutes. MTT was removed and formazan crystals formed were dissolved in 100 µl DMSO. The micro-wells were shaken for 5 minutes and read on a spectrophotometer at wavelengths of 570 nm (maximal formazan absorbance).
as §8
For assay [6], the system named is human U373 glioma cell line. Put plainly: Quantitative videomicroscopy (computer-assisted phase-contrast microscopy). The following applies: U373 cells treated at the IC50 concentration from MTT, filmed for 72h; cytostatic versus cytotoxic effects. It is filed as cell-based. An excerpt: In addition, the inventors could establish that the compounds of the invention act through a non-apoptosis-related mechanism thanks to a unique experimental approach used by the inventors, i.e. computer-assisted phase-contrast microscopy (quantitative videomicroscopy), making them good candidates as anti-cancer drugs for treating apoptosis-resistant tumor or cancer cells and for overcoming problems linked to the known anti-cancer drugs.
As the MTT test is based on the mitochondria functions, we also investigated the effects of the compounds according to the invention on cell proliferation, migration and morphology by means of a cellular imaging approach (Debeir et al., Cytometry 60:29-40, 2004; Debeir et al., IEEE Trans Med Imaging 24:697-711, 2005) in the human U373 glioma cell line, which is apoptosis-resistant but autophagy-sensitive (Lefranc F et al., Neurosurgery 2008).
Cellular imaging relied on the use of computer-assisted phase-contrast microscopy making possible to film the behaviour of living cells in culture dishes for several days.
Cells were seeded in a 25-cm^2 flask at a low density, treated or not with the compounds of the invention (at their IC50 concentration determined previously by MTT tests) and filmed thereafter for a period of 72h. The experiment was conducted in triplicate.
The behaviour of the cells, in terms of morphology, growth and death were thus investigated. The effect on the overall growth was measured by counting the number of cells on the first (0h) and the last image (72h) of each film. The global growth ratio (GGR) was then deduced by dividing the number of cells on the last image by the number of cells on the first image. The ratio GGRtreated cells / GGRcontrol cells, was further calculated thereby obtaining a value that describes the effect of compounds of the present invention on the overall cell growth.
The methodology is fully described and validated in Debeir et al., 2008, Exp Cell Res 314:2985-2998 and Mathieu et al., 2009, J Cell Mol Med, Feb 20, 2009.
Thanks to the quantitative videomicroscopy (QVM) approach, we classified the compounds into 4 distinctive classes on the basis of their cytostatic versus cytotoxic effects (Table 3). • Class I: actually cytostatic for 3 days (< 10 % of cell death at the 3rd day) • Class II: cytostatic but becomes cytotoxic with < 10% cell death on the 2nd day and > 20% of cell death on the 3rd day • Class III: cytostatic but rapidly becomes cytotoxic with < 10% cell death on the 1st day, > 20% of cell death on the 2nd day and > 50% of cell death on the 3rd day • Class IV: cytotoxic (> 50% of cell death on the first day)
In Fig. 1a, compounds of example 14 (5 µM), example 19 (20 µM) and example 23 (5 µM) belong to QVM Class I because they display cytostatic effects on human U373 GBM cells during the whole duration of the experiment. Cytostatic effects mean that < 10 % of cell death was recorded at the end of the experiment, i.e. at the end of the 3rd day. QVM analyses enable the global growth ratio (GGR) to be calculated in each experiment. The GGR index is obtained by dividing the number of cells in the last image by the number of cells in the first image of the experiment, knowing that 1080 images are taken during the 72 h-period of observation. The ratio GGR^treated cells / GGR^control cells was further calculated thereby obtaining a value that describes the effect of compounds on the overall cell growth. Thus, a GGR index of 0.2 means that they remain only 20% of treated cells compare to the control cells at the end of the experiment.

The test system of assay [7] is Hs683. The experiment in a line: MTT colorimetric assay, overall cell growth. The class given is cell-based. The following applies: Homo sapiens, Hs 683; Hs683 cells, 72 hours of incubation; read-out: IC50 (µM) In Vitro Growth Inhibitory Concentrations (MTT Colorimetric Assay) Hs683.
Method: as §2, §3, §4, §5, §6, §7, §8

The values below come from patent publication EP2487171A1, “Dihydrobenzopyran, thiochroman, tetrahydroquinoleine and tetrahydronaphthalene derivatives and their use in anti-cancer therapy” (Université de Liège, priority 2011, dated 2012).

Molecules are shown by their SMILES.

On to `CC(C)(C)OC(=O)Nc1ccc2c(c1)C(NC(=O)Nc1ccc(C#N)cc1)CC(C)(C)O2` (racemic) [Example 15, R/S-N-4-cyanophenyl-N'-(6-tert-butoxycarbonylamino-3,4-dihydro-2,2-dimethyl-2H-1-benzopyran-4-yl)urea], for which the IC50 in assay [1] was 10 µM; in assay [3], more than 200 µM; in assay [4] it was 18 ± 5 µM; in assay [5] it was 26 µM; in assay [7], 18 µM. Further, the “Bioselectivity (I / II)” value in assay [2] is more than 10. For the same compound, in assay [6], the “QVM Class” value is reported as “I (Class I: actually cytostatic for 3 days (< 10 % of cell death at the 3rd day))”.
As for `CC(C)(C)OC(=O)Nc1ccc2c(c1)C(NC(=O)Nc1cc(F)cc(F)c1)CC(C)(C)O2` (racemic) [Example 21, R/S-N-3,5-difluorophenyl-N'-(6-tert-butoxycarbonylamino-3,4-dihydro-2,2-dimethyl-2H-1-benzopyran-4-yl)urea], the IC50 in assay [1] is 6 µM; in assay [3] it was approximately 45 µM; in assay [4], 9 ± 3 µM; in assay [5], 14 µM; in assay [7] it was 7 µM. Also, the “Bioselectivity (I / II)” value in assay [2] is listed as “∼ 5”. In addition, the “QVM Class” value in assay [6] is “I (Class I: actually cytostatic for 3 days (< 10 % of cell death at the 3rd day))”.
Consider `CC(C)(C)OC(=O)Nc1ccc2c(c1)C(NC(=O)Nc1ccccc1[N+](=O)[O-])CC(C)(C)O2` (racemic) [Example 27, R/S-N-2-nitrophenyl-N'-(6-tert-butoxycarbonylamino-3,4-dihydro-2,2-dimethyl-2H-1-benzopyran-4-yl)urea], for which the IC50 was 12 µM in assay [1], 22 µM in assay [5] and 13 µM in assay [7]. The “QVM Class” value in assay [6] is “I (Class I: actually cytostatic for 3 days (< 10 % of cell death at the 3rd day))”.
For `CC(C)(C)OC(=O)Nc1ccc2c(c1)C(NC(=O)Nc1ccc(Cl)cc1)CC(C)(C)O2` (racemic) [Example 17, R/S-N-4-chlorophenyl-N'-(6-tert-butoxycarbonylamino-3,4-dihydro-2,2-dimethyl-2H-1-benzopyran-4-yl)urea], the IC50 in assay [1] is 22 µM; in assay [5] it was 26 µM; in assay [7] it was 26 µM. Further, in assay [6], the “QVM Class” value was “III (Class III: cytostatic but rapidly becomes cytotoxic with < 10% cell death on the 1st day, > 20% of cell death on the 2nd day and > 50% of cell death on the 3rd day)”.
With `CC(C)(C)OC(=O)Nc1ccc2c(c1)C(NC(=O)Nc1ccc(Cl)c(C(F)(F)F)c1)CC(C)(C)O2` (racemic) [Example 33, R/S-N-4-chloro-3-trifluoromethylphenyl-N'-(6-tert-butoxycarbonylamino-3,4-dihydro-2,2-dimethyl-2H-1-benzopyran-4-yl)urea], the IC50 in assay [1] was determined as 21 µM; in assay [5], 23 µM; in assay [7], 22 µM. Also, the “QVM Class” value in assay [6] is “III (Class III: cytostatic but rapidly becomes cytotoxic with < 10% cell death on the 1st day, > 20% of cell death on the 2nd day and > 50% of cell death on the 3rd day)”.
Take `CC(C)(C)OC(=O)Nc1ccc2c(c1)C(NC(=O)Nc1ccc(F)cc1)CC(C)(C)O2` (racemic) [Example 18, R/S-N-4-fluorophenyl-N'-(6-tert-butoxycarbonylamino-3,4-dihydro-2,2-dimethyl-2H-1-benzopyran-4-yl)urea]: the IC50 in assay [1] was 30 µM; in assay [5], 33 µM; in assay [7] it was 35 µM. For the same compound, the “QVM Class” value in assay [6] is given as “I (Class I: actually cytostatic for 3 days (< 10 % of cell death at the 3rd day))”.
The like results for `CC(C)(C)OC(=O)Nc1ccc2c(c1)C(NC(=O)Nc1cccc(F)c1)CC(C)(C)O2` (racemic) [Example 19, R/S-N-3-fluorophenyl-N'-(6-tert-butoxycarbonylamino-3,4-dihydro-2,2-dimethyl-2H-1-benzopyran-4-yl)urea] were, in that order, 20 µM, 26 µM, 19 µM and “I (Class I: actually cytostatic for 3 days (< 10 % of cell death at the 3rd day))”.
